Consider 3 molecules from patent publication US12421242B2, “Substituted tetrahydropyrrolo-pyridinone compounds and their use in treating medical conditions” (Karuna Therapeutics, Inc., priority 2022, dated 2025).

Assay [1] deals with T1, hM4 receptors (Homo sapiens, UniProt P08173).
T1 construct: expressed in transfected cells; host or cells: CHO cells
T1 sequence (P08173 1-479): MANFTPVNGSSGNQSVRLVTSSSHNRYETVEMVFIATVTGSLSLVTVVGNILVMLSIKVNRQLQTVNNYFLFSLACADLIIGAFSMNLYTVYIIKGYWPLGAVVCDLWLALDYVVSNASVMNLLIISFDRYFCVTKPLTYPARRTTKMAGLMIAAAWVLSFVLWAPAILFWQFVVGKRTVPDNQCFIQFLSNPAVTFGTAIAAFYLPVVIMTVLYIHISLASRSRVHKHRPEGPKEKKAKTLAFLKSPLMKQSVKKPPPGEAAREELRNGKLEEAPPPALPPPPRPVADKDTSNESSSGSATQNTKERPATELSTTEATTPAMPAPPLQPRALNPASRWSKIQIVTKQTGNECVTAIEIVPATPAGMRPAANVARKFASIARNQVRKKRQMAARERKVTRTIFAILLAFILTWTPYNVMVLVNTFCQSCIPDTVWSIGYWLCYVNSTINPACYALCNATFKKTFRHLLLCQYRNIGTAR
Put plainly: Human M4 PAM pERK assay. The format is cell-based. To be noted: PAM mode. In outline:
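CHO cells expressing hM4 or rM4 were serum-starved 4 h, then given compound (ten-point curve, 10 μM top, duplicate) with an EC20 of acetylcholine (10 nM final) for 5 min at 37° C. Phospho-ERK in lysates was detected by TR-FRET.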

Assay [2] deals with T2, human M4 receptor (Homo sapiens, UniProt P08173).
T2 construct: expressed in transfected cells
T2 sequence (P08173 1-479): T1 sequence (P08173 1-479)
In words: M4 GTPγS PAM assay. The settings on record: CHO-K1 membranes expressing human M4, with EC20 acetylcholine (40 nM). The format is biochemical. In outline: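 Membranes from CHO-K1 cells stably expressing human M4 preincubated 10-15 min with compound in HEPES/MgCl2/NaCl buffer with 0.1 µM GDP, then with EC20 acetylcholine (40 nM) for 10-15 min. [35S]GTPγS added for 1 h at room temperature; filter-bound radioactivity counted by scintillation.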

Usually EC50 stands for the concentration needed to bring the measured effect to its halfway point. A low value points to an effect from little substance. As to `Cc1c2c(n(C)c(=O)c1Cl)CN(C(=O)c1cnn(C(F)(F)F)c1)[C@@H]2C` [Compound I-76, (R)-3-Chloro-1,4,5-trimethyl-6-(1-(trifluoromethyl)-1H-pyrazole-4-carbonyl)-1,5,6,7-tetrahydro-2H-pyrrolo[3,4-b]pyridin-2-one], the EC50 in assay [1] and in assay [2] was less than 100 nM in each case.

With `Cc1c2c(n(C)c(=O)c1Cl)CN(C(=O)c1cnn(C(F)(F)F)c1)C2` [Compound I-1, 3-chloro-1,4-dimethyl-6-(1-(Trifluoromethyl)-1H-pyrazole-4-carbonyl)-1,5,6,7-tetrahydro-2H-pyrrolo[3,4-b]pyridin-2-one], the values for the EC50 in assay [1] and in assay [2] were less than 100 nM and 100 to 500 nM, respectively.

As to `COc1c2c(n(C)c(=O)c1C)CN(C(=O)c1cnn(C(F)(F)F)c1)C2` [Compound I-87], the EC50 in assay [1] is less than 100 nM; in assay [2], 100 to 500 nM.
